Reference: patent US20240294519A1, “PYRROLO[2,3-b]PYRIDINE PGDH INHIBITORS AND METHODS OF MAKING AND USING” (EPIRIUM BIO INC., priority 2021, published 2024)

How the values were obtained:
15-PGDH = biological target: T1, 15-PGDH (Homo sapiens, UniProt P15428); assay: A549 cell based assay: PGE2 in supernatant after IL-1β (HTRF); conditions: A549 cells, fold induction of PGE2, IL-1β plus test article versus IL-1β only
T1 construct: 15-PGDH is highly expressed in resting human lung adenocarcinoma cells (A549); endogenous in cells; host or cells: A549
T1 sequence (P15428 1-266): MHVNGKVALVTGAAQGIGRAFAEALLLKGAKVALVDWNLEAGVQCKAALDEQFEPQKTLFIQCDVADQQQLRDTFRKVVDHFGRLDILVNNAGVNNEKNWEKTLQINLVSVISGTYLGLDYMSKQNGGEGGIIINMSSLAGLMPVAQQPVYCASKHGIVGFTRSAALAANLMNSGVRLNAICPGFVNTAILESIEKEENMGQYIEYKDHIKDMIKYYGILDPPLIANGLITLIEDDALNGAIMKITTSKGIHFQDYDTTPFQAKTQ
Procedure: Cell Based Assay: 15-PGDH is highly expressed in resting human lung adenocarcinoma cells (A549) (Tong et al., 2006), and this cell line was used to assess 15-PGDH inhibition by MF-300Na in vitro.
In this assay, A549 cells are treated with interleukin (IL) 1β, which induces the expression of cycloxygenase-2 and the synthesis of PGE2 (Tong et al., 2006). In the studies evaluating test articles, thirty thousand A549 cells were seeded in 100 μL F12K completed media and incubated for 24 hours at 37° C. with 5% CO2 before being serum-starved for 24 hours. On the day of the experiment, buffer was changed to complete medium, and cells were incubated for 30 minutes with compounds prior to the addition of IL-1β (final concentration of 0.1-0.25 ng/mL) overnight at 37° C. with 5% CO2. Each concentration was run in triplicate. […] The PGE2 in the supernatant was detected and quantified using a Cisbio HTRF technology (Homogeneous Time-Resolved Fluorescence) kit (62P2APEG-62P2APEH) according to the manufacturer's recommendations, quantifying the fold induction of PGE2 of cells treated with IL-1β plus test article, versus treatment with IL-1β only.

15-PGDH/HPGD = biological target: T2, 15-PGDH/HPGD (Homo sapiens, UniProt P15428); assay: hPGDH inhibitor screening biochemical assay; conditions: 10 nM enzyme, 15 μM PGE2, 0.25 mM NAD, fluorescence ex/em 340/485 nm
T2 construct: purchased R&D System 5660-DH
T2 sequence (P15428 1-266): T1 sequence (P15428 1-266)
Procedure: A hydroxyprostaglandin dehydrogenase inhibition screening biochemical assay can be performed to assess the synthesized inhibitors provided herein. Provided herein is an exemplary biochemical assay for hPGDH inhibitor screening.
The in vitro biochemical assay can be performed in white, 384 plates in total 20 μl reaction volume consisting of 10 nM of 15-PGDH/HPGD (R&D System #5660-DH), 15 μM Prostaglandin E2 (Sigma, C8 t #P5640-10 MG) and 0.25 mM β-Nicotinamide adenine dinucleotide sodium salt (Sigma, C8 t #N0632-5G) made in reaction buffer (50 mM Tris-HCl, pH 7.5, 0.01% Tween 20) at 10-point dose response curve for test/tool compounds. Briefly, 5 μl (4×) of compounds solution and 5 μl (final concentration, 10 nM) of enzyme solution is added to white 384 well plates and incubated for 10 mins at 37° C. 5 μl (4×) of […] and 5 μl (4×) of β-Nicotinamide adenine dinucleotide sodium salt is added to the wells and incubated for 10 mins at room temperature. Fluorescence is recorded at ex/em=340 nm/485 nm. The percentage (%) inhibition of enzyme activity was determined relative to positive control (1% DMSO) and IC50 was calculated using GraphPad prism software (four parameter-variable slope equation).

Structure (SMILES) | PGE2 - HTRF over IL-β induction at 0.001 μM (15-PGDH) | PGE2 - HTRF over IL-β induction at 0.01 μM (15-PGDH) | PGE2 - HTRF over IL-β induction at 0.1 μM (15-PGDH) | PGE2 - HTRF over IL-β induction at 1 μM (15-PGDH) | IC50 (15-PGDH/HPGD) [nM]
O=C(c1cnc2c(ccn2-c2ccc3nc(N4CCOCC4)nn3c2)c1)N1CCC(F)(F)CC1 [Compound B-97, (4,4-difluoropiperidin-1-yl)(1-(2-morpholino [1,2,4]triazolo [1,5-a]pyridin-6-yl)-1H-pyrrolo [2,3-b]pyridin-5-yl)methanone] | 1.08 | 2.42 | 4.98 | 5.37 | 
Cc1nc2ccc(-n3ccc4cc(C(=O)N5CCC(F)(F)CC5)cnc43)cn2n1 [Compound B-120] | 1.34 | 1.28 | 4.15 | 6.26 | 
C[C@H]1CCCN(C(=O)c2cnc3c(ccn3-c3cnn(CC(F)(F)F)c3)c2)C1 [Compound B-100] | 0.79 | 1.78 | 4.49 | 5.26 | 
COC(=O)Nc1cncc(-n2ccc3cc(C(=O)N4CCCC(F)(F)C4)cnc32)c1 [Compound B-82] | 2.7 | 5.52 | 5.36 | 4.19 | < 100
CCC1CCCN(C(=O)c2cnc3c(ccn3-c3ccc(N4CCOC4=O)nc3)c2)C1 (stereo not shown) [Compound B-113] | 6.05 | 3.06 | 8.74 | 10.7 | < 100
C[C@H]1CCCN(C(=O)c2cnc3c(ccn3-c3ccc4nc(N(C)C)nn4c3)c2)C1 [Compound B-108] | 1.57 | 2.98 | 3.46 | 3.26 | 
O=C(c1cnc2c(ccn2-c2ccc(N3C(=O)CCC3=O)cc2)c1)N1CCC(F)(F)CC1 [Compound B-106] | 0.90 | 0.81 | 0.86 | 2.8 | 
O=C(O)c1ccc(-n2ccc3cc(C(=O)N4CCC(F)(F)CC4)cnc32)s1 [Compound B-118] | 1.48 | 1.55 | 1 | 1.02 | 
Cc1cn2cc(-n3ccc4cc(C(=O)N5CCC(F)(F)CC5)cnc43)ccc2n1 [Compound B-103] | 1.15 | 1.34 | 5.1 | 6.3 | 
O=C(c1cnc2c(ccn2-c2ccc(-c3nc[nH]n3)s2)c1)N1CCC(F)(F)CC1 [Compound B-119] | 1.01 | 1.2 | 2.87 | 3.06 | 
O=C(c1cnc2c(ccn2-c2ccc(N3CCOC3=O)nc2)c1)N1CCCC(F)(F)C1 [Compound B-115] | 4.36 | 3.07 | 4.92 | 5.24 | 
C[C@@H]1CCCN(C(=O)c2cnc3c(ccn3-c3ccc(C(=O)O)cc3)c2)C1 [Compound B-3] |  |  |  |  | < 100
Cc1cnc(-c2ccc(-n3ccc4cc(C(=O)N5CCC(F)(F)CC5)cnc43)cn2)[nH]1 [Compound B-17] |  |  |  |  | < 100
Cc1nc(-c2ccc(-n3ccc4cc(C(=O)N5CCC(F)(F)CC5)cnc43)cn2)c[nH]1 [Compound B-16, (4,4-difluoropiperidin-1-yl)(1-(6-(2-methyl-1H-imidazol-4-yl)pyridin-3-yl)-1H-pyrrolo[2,3-b]pyridin-5-yl)methanone] |  |  |  |  | < 100
CC1CCCN(C(=O)c2cnc3c(ccn3-c3ccc(C#N)cc3)c2)C1 (stereo in doubt) [Compound B-10, (R)-4-(5-(3-methylpiperidine-1-carbonyl)-1H-pyrrolo[2,3-b1 pyridin-1-yl)benzonitrile] |  |  |  |  | < 100
Nc1nc(-c2cncc(-n3ccc4cc(C(=O)N5CCC(F)(F)CC5)cnc43)c2)no1 [Compound B-11, (1-(5-(5-amino-1,2,4-oxadiazol-3-yl)pyridin-3-yl)-1H-pyrrolo [2,3-b]pyridin-5-yl)(4,4-difluoropiperidin-1-yl)methanone] |  |  |  |  | < 100
C[C@@H]1CCN(C(=O)c2cnc3c(ccn3-c3ccc(C(=O)O)cc3)c2)C1 [Compound B-5] |  |  |  |  | < 100
COC(=O)Nc1cncc(-n2ccc3cc(C(=O)N4CCC[C@@H](C(F)(F)F)C4)cnc32)c1 [Compound B-66] |  |  |  |  | < 100
CN1CCN(c2ccc(-n3ccc4cc(C(=O)N5CCC(F)(F)CC5)cnc43)cn2)C1=O [Compound B-91] |  |  |  |  | < 100
O=C(c1cnc2c(ccn2-c2ccc(-n3cnnc3)cc2)c1)N1CCC(F)(F)CC1 [Compound B-107] | 1.73 | 1.31 | 2.12 | 3.51 | 
O=C(c1cnc2c(ccn2-c2cnn(CC(F)(F)F)c2)c1)N1CCCC(F)(F)C1 [Compound B-57] |  |  |  |  | < 100

Results, then the compound that gave them:

PGE2 - HTRF over IL-β induction at 0.001 μM (15-PGDH) | PGE2 - HTRF over IL-β induction at 0.01 μM (15-PGDH) | PGE2 - HTRF over IL-β induction at 0.1 μM (15-PGDH) | PGE2 - HTRF over IL-β induction at 1 μM (15-PGDH) | IC50 (15-PGDH/HPGD) [nM] | Structure (SMILES)
0.34 | 1.02 | 2.68 | 4.46 | < 100 | O=C(Nc1cncc(-n2ccc3cc(C(=O)N4CCC(F)(F)CC4)cnc32)c1)C1CCOCC1 [Compound B-232]
1.63 | 3.57 | 6.46 | 8.32 | < 100 | O=C(Nc1cncc(-n2ccc3cc(C(=O)N4CCC(F)(F)CC4)cnc32)c1)C1CCC1 [Compound B-236]
 |  |  |  | < 100 | CC1(O)CCCN(C(=O)c2cnc3c(ccn3-c3cc(Cl)cc(-c4nnc[nH]4)c3)c2)C1 (stereo not shown) [Compound B-240]
 |  |  |  | 100 to 1000 | O=C(c1cnc2c(ccn2-c2cnn(CC(F)F)c2)c1)N1CCC(F)(F)CC1 [Compound B-235]
 |  |  |  | < 100 | O=C(c1cnc2c(ccn2-c2cc(-c3nnc[nH]3)ccc2F)c1)N1CCC(F)(F)CC1 [Compound B-272]
 |  |  |  | < 100 | O=C(c1cnc2c(ccn2-c2cccc(-c3nnc[nH]3)c2)c1)N1CCC[C@H](O)C1 [Compound B-260]
 |  |  |  | < 100 | N#Cc1cc(-c2nnc[nH]2)cc(-n2ccc3cc(C(=O)N4CCC(F)(F)CC4)cnc32)c1 [Compound B-274]
 |  |  |  | < 100 | O=C(c1cnc2c(ccn2-c2ccc(-c3nnc[nH]3)c(Cl)c2)c1)N1CCSCC1 [Compound B-253]
 |  |  |  | < 100 | C[C@]1(O)CCCN(C(=O)c2cnc3c(ccn3-c3cccc(-c4nnc[nH]4)c3)c2)C1 [Compound B-249]
 |  |  |  | < 100 | O=C(c1cnc2c(ccn2-c2ccc(-c3nnc[nH]3)cc2)c1)N1CCSCC1 [Compound B-227]
 |  |  |  | < 100 | CCOC(=O)Nc1cncc(-n2ccc3cc([S+]([O-])C4CCCC4)cnc32)c1 (stereo not shown) [Compound B-316]
 |  |  |  | < 100 | CO[C@@H]1CCCN(C(=O)c2cnc3c(ccn3-c3ccc(-c4nnc[nH]4)c(Cl)c3)c2)C1 [Compound B-245]
